Results taken from ChEMBL document CHEMBL4043269, “Synthesis and structure activity relationships of carbamimidoylcarbamate derivatives as novel vascular adhesion protein-1 inhibitors” (Bioorg Med Chem, 2017).

Key:
[1] = biological target: CYP3A4 (Homo sapiens, UniProt P08684); experiment: Inhibition of CYP3A4 in human liver microsomes using midazolam as substrate assessed as residual activity at 5 uM after 20 mins by HPLC analysis; type: ADME; settings: probe midazolam, read-out: Activity
[2] = biological target: CYP2C19 (Homo sapiens, UniProt P33261); experiment: Inhibition of CYP2C19 in human liver microsomes using S-mephenytoin as substrate assessed as residual activity at 5 uM after 20 mins by HPLC analysis; type: ADME; settings: probe S-mephenytoin, read-out: Activity
Chain of CYP2C19 (P33261 whole entry): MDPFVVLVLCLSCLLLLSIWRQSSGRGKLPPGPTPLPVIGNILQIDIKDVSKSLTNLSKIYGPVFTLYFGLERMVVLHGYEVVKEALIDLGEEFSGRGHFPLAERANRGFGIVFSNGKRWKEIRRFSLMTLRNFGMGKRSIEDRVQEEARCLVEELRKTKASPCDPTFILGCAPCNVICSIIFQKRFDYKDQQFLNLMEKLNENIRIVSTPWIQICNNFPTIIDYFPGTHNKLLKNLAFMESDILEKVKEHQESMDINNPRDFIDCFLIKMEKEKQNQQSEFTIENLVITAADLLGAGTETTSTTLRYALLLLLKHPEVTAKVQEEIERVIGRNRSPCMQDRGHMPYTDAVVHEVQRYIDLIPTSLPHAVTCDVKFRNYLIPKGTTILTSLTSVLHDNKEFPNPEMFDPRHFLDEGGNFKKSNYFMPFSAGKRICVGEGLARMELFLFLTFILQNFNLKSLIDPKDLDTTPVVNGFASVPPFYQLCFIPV

[3] = biological target: T1, Amine oxidase [copper-containing] 3 (Homo sapiens, UniProt Q16853); experiment: Inhibition of human VAP-1 expressed in CHO cells preincubated for 20 mins followed by [14C]-benzylamine addition measured after 1 hr by scintillation spectrometric analysis; type: cell-based
T1 sequence (Q16853 whole entry): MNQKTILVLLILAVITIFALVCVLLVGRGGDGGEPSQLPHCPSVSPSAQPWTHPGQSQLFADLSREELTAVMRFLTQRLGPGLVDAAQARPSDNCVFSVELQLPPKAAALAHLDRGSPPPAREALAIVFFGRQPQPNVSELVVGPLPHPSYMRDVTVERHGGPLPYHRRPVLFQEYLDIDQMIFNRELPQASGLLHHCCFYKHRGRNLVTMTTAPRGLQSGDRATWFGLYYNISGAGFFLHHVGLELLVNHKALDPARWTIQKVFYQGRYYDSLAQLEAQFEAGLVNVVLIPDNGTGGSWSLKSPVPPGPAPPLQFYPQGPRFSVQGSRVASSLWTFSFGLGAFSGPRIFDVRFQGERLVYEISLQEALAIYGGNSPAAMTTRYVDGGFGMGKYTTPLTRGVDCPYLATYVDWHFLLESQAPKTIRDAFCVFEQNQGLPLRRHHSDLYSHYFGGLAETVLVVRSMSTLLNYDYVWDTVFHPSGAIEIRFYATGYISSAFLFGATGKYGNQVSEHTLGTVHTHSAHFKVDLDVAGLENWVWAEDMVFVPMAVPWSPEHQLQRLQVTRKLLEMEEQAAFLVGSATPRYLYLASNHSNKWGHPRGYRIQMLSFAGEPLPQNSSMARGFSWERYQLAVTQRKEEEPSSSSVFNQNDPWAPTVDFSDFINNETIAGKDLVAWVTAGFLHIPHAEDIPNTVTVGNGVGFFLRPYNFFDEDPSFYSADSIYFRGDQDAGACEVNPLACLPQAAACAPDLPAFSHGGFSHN

[4] = Aqueous solubility of compound in Japanese pharmacopoeia second fluid at pH 6.8 at 130 uM after 20 hrs by HPLC analysis; type: physicochemical
[5] = biological target: T2, CYP1A2 (Homo sapiens, UniProt P05177); experiment: Inhibition of CYP1A2 in human liver microsomes using phenacetin as substrate assessed as residual activity at 5 uM after 20 mins by HPLC analysis; type: ADME; settings: probe phenacetin, read-out: Activity
T2 sequence (P05177 whole entry): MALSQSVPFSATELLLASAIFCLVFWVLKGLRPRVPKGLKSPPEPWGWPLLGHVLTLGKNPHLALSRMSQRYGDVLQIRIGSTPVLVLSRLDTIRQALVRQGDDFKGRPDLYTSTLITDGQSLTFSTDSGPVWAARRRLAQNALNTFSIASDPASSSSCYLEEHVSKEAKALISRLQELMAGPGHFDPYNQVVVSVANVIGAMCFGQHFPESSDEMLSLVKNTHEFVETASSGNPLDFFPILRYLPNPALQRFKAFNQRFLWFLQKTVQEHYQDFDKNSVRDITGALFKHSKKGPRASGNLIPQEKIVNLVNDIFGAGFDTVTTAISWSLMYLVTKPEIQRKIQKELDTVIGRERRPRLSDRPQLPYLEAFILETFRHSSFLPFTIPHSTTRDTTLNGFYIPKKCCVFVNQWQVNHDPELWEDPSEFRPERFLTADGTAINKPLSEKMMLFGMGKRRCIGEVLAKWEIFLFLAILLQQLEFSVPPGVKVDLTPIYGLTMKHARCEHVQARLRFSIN

[6] = biological target: CYP2D6 (Homo sapiens, UniProt P10635); experiment: Inhibition of CYP2D6 in human liver microsomes using dextromethorphan as substrate assessed as residual activity at 5 uM after 20 mins by HPLC analysis; type: ADME; settings: probe dextromethorphan, read-out: Activity
Chain of CYP2D6 (P10635 whole entry): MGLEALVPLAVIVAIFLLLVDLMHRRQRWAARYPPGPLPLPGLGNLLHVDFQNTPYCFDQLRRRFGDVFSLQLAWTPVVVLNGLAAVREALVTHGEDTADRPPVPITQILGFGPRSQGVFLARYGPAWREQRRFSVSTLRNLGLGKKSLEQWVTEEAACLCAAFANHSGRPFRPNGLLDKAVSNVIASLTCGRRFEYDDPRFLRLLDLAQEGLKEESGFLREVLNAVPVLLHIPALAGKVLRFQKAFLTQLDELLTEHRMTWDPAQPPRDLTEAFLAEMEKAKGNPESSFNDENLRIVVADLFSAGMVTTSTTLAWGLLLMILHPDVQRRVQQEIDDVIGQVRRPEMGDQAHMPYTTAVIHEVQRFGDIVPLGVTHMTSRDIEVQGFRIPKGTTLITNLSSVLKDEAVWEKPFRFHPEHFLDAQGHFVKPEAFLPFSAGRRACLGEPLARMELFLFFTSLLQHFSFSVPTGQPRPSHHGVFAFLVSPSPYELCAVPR

[7] = biological target: T3, CYP2C8 (Homo sapiens, UniProt P10632); experiment: Inhibition of CYP2C8 in human liver microsomes using amodiaquine as substrate assessed as residual activity at 5 uM after 20 mins by HPLC analysis; type: ADME; settings: probe amodiaquine, read-out: Activity
T3 sequence (P10632 whole entry): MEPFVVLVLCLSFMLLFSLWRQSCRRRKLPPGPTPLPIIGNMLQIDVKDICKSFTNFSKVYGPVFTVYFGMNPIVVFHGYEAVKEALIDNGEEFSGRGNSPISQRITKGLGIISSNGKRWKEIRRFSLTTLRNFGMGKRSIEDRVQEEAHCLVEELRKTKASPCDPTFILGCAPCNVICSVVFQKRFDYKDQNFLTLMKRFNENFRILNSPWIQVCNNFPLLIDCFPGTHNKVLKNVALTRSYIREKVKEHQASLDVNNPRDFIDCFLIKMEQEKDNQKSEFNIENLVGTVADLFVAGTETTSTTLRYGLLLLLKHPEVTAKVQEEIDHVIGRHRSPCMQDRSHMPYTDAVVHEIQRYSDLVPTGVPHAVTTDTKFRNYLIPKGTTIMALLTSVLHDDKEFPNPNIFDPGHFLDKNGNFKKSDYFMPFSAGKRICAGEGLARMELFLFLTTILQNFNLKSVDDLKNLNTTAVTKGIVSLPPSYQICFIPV

[8] = Stability in Wistar rat plasma assessed as parent compound remaining at 2 uM after 6 hrs by LC-MS/MS analysis relative to initial concentration; type: ADME, cell-free; settings: read-out: Stability
[9] = Stability in Beagle dog plasma assessed as parent compound remaining at 2 uM after 6 hrs by LC-MS/MS analysis relative to initial concentration; type: ADME, cell-free, Canis lupus familiaris; settings: read-out: Stability
[10] = Stability in human plasma assessed as parent compound remaining at 2 uM after 6 hrs by LC-MS/MS analysis relative to initial concentration; type: ADME, cell-free; settings: read-out: Stability
[11] = Stability in cynomolgus monkey plasma assessed as parent compound remaining at 2 uM after 6 hrs by LC-MS/MS analysis relative to initial concentration; type: ADME, cell-free, Macaca fascicularis; settings: read-out: Stability
[12] = biological target: CYP2C9 (Homo sapiens, UniProt P11712); experiment: Inhibition of CYP2C9 in human liver microsomes using diclofenac as substrate assessed as residual activity at 5 uM after 20 mins by HPLC analysis; type: ADME; settings: probe diclofenac, read-out: Activity
Chain of CYP2C9 (P11712 whole entry): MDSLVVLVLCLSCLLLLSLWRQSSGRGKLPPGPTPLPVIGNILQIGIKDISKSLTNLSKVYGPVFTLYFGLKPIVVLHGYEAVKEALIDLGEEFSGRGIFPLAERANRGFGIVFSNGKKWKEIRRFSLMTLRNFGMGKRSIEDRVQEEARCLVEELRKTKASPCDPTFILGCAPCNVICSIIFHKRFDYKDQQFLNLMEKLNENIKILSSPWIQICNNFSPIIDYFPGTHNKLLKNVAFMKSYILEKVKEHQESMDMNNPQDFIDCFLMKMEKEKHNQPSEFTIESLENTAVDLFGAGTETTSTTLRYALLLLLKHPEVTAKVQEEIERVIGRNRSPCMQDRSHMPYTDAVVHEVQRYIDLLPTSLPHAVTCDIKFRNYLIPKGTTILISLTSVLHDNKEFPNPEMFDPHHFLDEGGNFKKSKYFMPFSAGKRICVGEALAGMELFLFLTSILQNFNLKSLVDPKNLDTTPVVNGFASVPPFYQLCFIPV

Chain of CYP3A4 (P08684 whole entry): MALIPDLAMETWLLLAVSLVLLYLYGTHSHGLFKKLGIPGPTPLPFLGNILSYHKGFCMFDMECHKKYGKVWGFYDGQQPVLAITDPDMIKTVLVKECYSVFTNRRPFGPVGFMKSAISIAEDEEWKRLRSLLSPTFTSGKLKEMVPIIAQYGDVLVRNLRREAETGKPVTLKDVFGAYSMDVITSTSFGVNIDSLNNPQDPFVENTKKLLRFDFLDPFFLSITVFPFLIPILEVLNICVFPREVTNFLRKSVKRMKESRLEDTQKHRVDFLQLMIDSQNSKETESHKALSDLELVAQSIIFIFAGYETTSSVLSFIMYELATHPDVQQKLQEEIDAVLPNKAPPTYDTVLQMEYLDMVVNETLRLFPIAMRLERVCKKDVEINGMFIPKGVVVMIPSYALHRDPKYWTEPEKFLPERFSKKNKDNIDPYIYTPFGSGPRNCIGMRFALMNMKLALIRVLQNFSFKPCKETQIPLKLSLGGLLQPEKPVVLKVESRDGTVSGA

Row | SMILES | activity at 20 min, 5 µM [1] [%] | activity at 20 min, 5 µM [2] [%] | IC50 [3] [nM] | solubility at 20 h, 130 µM [4] [µM] | activity at 20 min, 5 µM [5] [%] | activity at 20 min, 5 µM [6] [%] | activity at 20 min, 5 µM [7] [%] | other results
1 | Cc1ncccc1OC1CN(c2cccc(COC(=O)NC(=N)N)c2F)C1.O=C(O)C(O)C(O)C(=O)O | 96 | 91 | 40 | ≥ 100 | 89 | 77 | 46 | –
2 | N=C(N)Nc1ccc(CCc2cnc(N3CCOCC3)nc2)cc1 | – | – | 5100 | – | – | – | – | –
3 | Cc1nc(N2CCOCC2)ncc1-c1cccc(COC(=O)NC(=N)N)c1F.O=C(O)C(O)C(O)C(=O)O | – | – | 400 | 90 | – | – | – | –
4 | N=C(N)NC(=O)OCc1cccc(N2CCN(C3CCOCC3)CC2)c1.O=C(O)C(O)C(O)C(=O)O | – | – | 110 | ≥ 100 | – | – | – | –
5 | Cc1c(COC(=O)NC(=N)N)cccc1-c1cnc(N2CCOCC2)nc1.O=C(O)C(O)C(O)C(=O)O | – | – | 410 | 34 | – | – | – | –
6 | N=C(N)NC(=O)OCc1cccc(N2CC(Oc3cccnc3)C2)c1F.N=C(N)NC(=O)OCc1cccc(N2CC(Oc3cccnc3)C2)c1F.O=C(O)C(O)C(O)C(=O)O | 56 | 66 | 24 | ≥ 100 | 84 | 16 | 78 | –
7 | Cl.Cl.N=C(N)NC(=O)OCc1cccc(-c2cnc(N3CCOCC3)nc2)c1Cl | – | – | 600 | 8.2 | – | – | – | –
8 | N=C(N)Nc1cccc(CCc2cnc(N3CCOCC3)nc2)c1 | – | – | > 10000 | – | – | – | – | –
9 | N=C(N)NC(=O)OCc1cccc(N2CCN(c3cccnc3)CC2)c1F.O=C(O)C(O)C(O)C(=O)O | 61 | 96 | – | 31 | 94 | 96 | 99 | –
10 | Cl.Cl.Cl.N=C(N)NC(=O)OCc1cccc(N2CCC(N3CCOCC3)CC2)c1 | – | – | 160 | ≥ 100 | – | – | – | –
11 | Cl.Cl.N=C(N)NC(=O)OCc1ccc(F)c(-c2cnc(N3CCOCC3)nc2)c1 | – | – | 99 | 68 | – | – | – | –
12 | N=C(N)NC(=O)OCc1ccc(F)c(-c2cnc(N3CCOCC3)nc2)c1F.N=C(N)NC(=O)OCc1ccc(F)c(-c2cnc(N3CCOCC3)nc2)c1F.O=C(O)C(O)C(O)C(=O)O | – | – | 77 | 17 | – | – | – | –
13 | N=C(N)NCCc1cccc(CCc2cnc(N3CCOCC3)nc2)c1 | – | – | > 10000 | – | – | – | – | –
14 | Cl.Cl.Cl.N=C(N)NC(=O)OCc1cccc(N2CCN(c3ccccn3)CC2)c1 | – | – | 140 | ≥ 100 | – | – | – | –
15 | N=C(N)NC(=O)OCc1cccc(-c2cnc(N3CCOCC3)nc2)c1.O=C(O)C(O)C(O)C(=O)O | 109 | 102 | 47 | 8.3 | 96 | 93 | 83 | remaining at 6 h, 2 µM [8]: 105%; remaining at 6 h, 2 µM [9]: 98.3%; remaining at 6 h, 2 µM [10]: 101%; remaining at 6 h, 2 µM [11]: 103%
16 | CN(Cc1cccc(-c2cnc(N3CCOCC3)nc2)c1)C(=O)CN.O=C(O)C(O)C(O)C(=O)O | – | – | 31 | ≥ 100 | – | – | – | –
17 | CN(Cc1cccc(-c2cnc(N3CCOCC3)nc2)c1)C(=O)NC(=N)N | – | – | 530 | – | – | – | – | –
18 | N=C(N)NC(=O)Cc1cccc(CCc2cnc(N3CCOCC3)nc2)c1 | – | – | 54 | – | – | – | – | –
19 | N=C(N)NC(=O)OCc1cccc(N2CCC(Oc3cccnc3)CC2)c1F.O=C(O)C(O)C(O)C(=O)O | 32 | 96 | 45 | ≥ 100 | 93 | 11 | 61 | –
20 | Cl.Cl.Cl.N=C(N)NC(=O)OCc1cccc(N2CCN(c3ccncc3)CC2)c1 | 80 | 91 | 13 | ≥ 100 | 86 | 13 | 25 | activity at 20 min, 5 µM [12]: 80%
21 | Cl.N=C(N)NC(=O)OCc1cccc(-c2cnc(N3CCOCC3)nc2)c1F | – | – | 9.2 | 7.5 | – | – | – | –
22 | Cl.Cl.Cl.N=C(N)NC(=O)OCc1cccc(N2CCN(c3cccnc3)CC2)c1 | 64 | 99 | 31 | ≥ 100 | 55 | 68 | 92 | activity at 20 min, 5 µM [12]: 101%
23 | N=C(N)NC(=O)Cc1cccc(-c2cnc(N3CCOCC3)nc2)c1 | – | – | 56 | – | – | – | – | –
